The record followed here is patent publication US9216968B2, “Heterocyclic derivative and pharmaceutical drug” (NIPPON SHINYAKU CO., LTD., priority 2011, dated 2015).

Where a name gives a salt, the structure may show the parent alone.

What is called IC50 is the midpoint of a concentration-inhibition curve.

For one experiment, the target named is human mPGES-1 (Homo sapiens (Human), UniProt O14684). The experiment is described as follows: mPGES-1 inhibiting activity (microsome fractions, PGE2 by HTRF). The settings on record: microsomes from CHO-K1 cells transfected with human mPGES-1; PGH2 1 μM, 4° C., 60 seconds; read-out: mPGES-1 Inhibition IC50. The class given is biochemical. Summed up:
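PGE2 formation read by HTRF after 60 s at 4 °C with 1 μM PGH2 substrate, following 20 min compound preincubation (1% DMSO) with human mPGES-1 microsomes from transfected CHO-K1 cells. Buffer: potassium phosphate, reduced glutathione, pH 7.4; IC50 from activity relative to enzyme-free blank.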
In general terms: In TR-FRET formats the signal depends on donor and acceptor labels being close together.

A further experiment relates to A549 cells. Kind of experiment: Inhibition of PGE2 production in A549 cell (IL-1β stimulated). The format is cell-based, human. The settings on record: Homo sapiens, A549, 24 h, IL-1β 5 ng/well, PGE2 in culture medium. Summed up: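 After IL-1β (5 ng/well) stimulation for 24 h at 37 °C, following a 60-min compound pretreatment in RPMI with 3% FBS, medium PGE2 (HTRF) and PGF2α (EIA) from human A549 cells were quantified. 100% activity set as IL-1β-induced minus basal production; IC50 calculated.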

Sequence of human mPGES-1 (O14684 whole entry): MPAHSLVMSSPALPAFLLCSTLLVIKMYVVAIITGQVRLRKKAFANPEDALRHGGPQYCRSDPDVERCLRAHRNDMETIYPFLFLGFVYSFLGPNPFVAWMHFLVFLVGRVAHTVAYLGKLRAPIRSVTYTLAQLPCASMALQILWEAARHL

For `NC(=O)Cc1nc2c(C(=O)NCc3ccccc3C(F)(F)F)cc(NC(=O)c3ccccc3C(F)(F)F)cc2[nH]1` [Example 45, 2-(2-Amino-2-oxoethyl)-N-[2-(trifluoromethyl)benzyl]-6-({[2-(trifluoromethyl)phenyl]carbonyl}amino)-1H-benzimidazole-4-carboxamide hydrochloride], the concentration for half-maximal inhibition (IC50) at human mPGES-1 was determined as 4.9 nM; in the experiment with A549 cells, 2080 nM.

As for `COCc1nc2c(C(=O)NCc3cccc(Cl)c3C)cc(NC(=O)c3ccccc3C(F)(F)F)cc2[nH]1` [Example 39, N-(3-Chloro-2-methylbenzyl)-2-(methoxymethyl)-6-({[2-(trifluoromethyl)phenyl]carbonyl}amino)-1H-benzimidazole-4-carboxamide hydrochloride], the IC50 on human mPGES-1 is 10.4 nM; with A549 cells, 237 nM.

On to `Cc1c(Cl)cccc1NC(=O)c1cc(NC(=O)c2c(F)cccc2Cl)cc2[nH]c(NCCOC(C)C)nc12` [Example 194, 6-{[(2-Chloro-6-fluorophenyl)carbonyl]amino}-N-(3-chloro-2-methylphenyl)-2-{[2-(propan-2-yloxy)ethyl]amino}-1H-benzimidazole-4-carboxamide hydrochloride], for which the IC50 was 0.4 nM on human mPGES-1 and 33.8 nM in the experiment on A549 cells.

Turning to `Cc1ccc(NC(=O)c2cc(NC(=O)c3c(Cl)cccc3Cl)cc3[nH]c(N(C)C)nc23)cc1Cl` [Example 206, N-(3-Chloro-4-methylphenyl)-6-{[(2,6-dichlorophenyl)carbonyl]amino}-2-(dimethylamino)-1H-benzimidazole-4-carboxamide hydrochloride], the results for the IC50 at human mPGES-1 and in the experiment on A549 cells were 3.2 nM and 74.5 nM, respectively.

With `Cc1ccc(NC(=O)c2cc(NC(=O)c3cc(Cl)ccc3Cl)cc3[nH]c(C4(C)CC4)nc23)cc1Cl` [Example 211, N-(3-Chloro-4-methylphenyl)-6-{[(2,5-dichlorophenyl)carbonyl]amino}-2-(1-methylcyclopropyl)-1H-benzimidazole-4-carboxamide hydrochloride], the concentration for half-maximal inhibition (IC50) at human mPGES-1 was 2.5 nM; with A549 cells, 8.5 nM.

On to `Cc1c(Cl)cccc1NC(=O)c1cc(NC(=O)c2ccccc2C(F)(F)F)cc2[nH]c(N3CCOCC3)nc12` [Example 156, N-(3-Chloro-2-methylphenyl)-2-(morpholin-4-yl)-6-({[2-(trifluoromethyl)phenyl]carbonyl}amino)-1H-benzimidazole-4-carboxamide], for which the IC50 on human mPGES-1 is 1.6 nM; in the experiment with A549 cells, 24.6 nM.

Take `CCc1nc2c(C(=O)NC3CCCCC3)cc(NC(=O)c3ccccc3C(F)(F)F)cc2[nH]1` [Example 18, N-Cyclohexyl-2-ethyl-6-({[2-(trifluoromethyl)phenyl]carbonyl}amino)-1H-benzimidazole-4-carboxamide]: the values for the IC50 on human mPGES-1 and in the experiment with A549 cells were 21.6 nM and 110 nM, respectively.

Turning to `CCNc1nc2c(C(=O)Nc3cccc(Cl)c3C)cc(NC(=O)c3ccccc3C(F)(F)F)cc2[nH]1` [Example 139, N-(3-Chloro-2-methylphenyl)-2-(ethylamino)-6-({[2-(trifluoromethyl)phenyl]carbonyl}amino)-1H-benzimidazole-4-carboxamide hydrochloride], the IC50 stood at 1.9 nM at human mPGES-1 and 72.8 nM in the experiment with A549 cells.

As for `O=C(Nc1cc2c(c(C(=O)NC3CCCCC3)c1)OCC2)c1ccccc1C(F)(F)F` [Example 7, N-Cyclohexyl-5-({[2-(trifluoromethyl)phenyl]carbonyl}amino)-2,3-dihydro-1-benzofuran-7-carboxamide], the figures for the IC50 at human mPGES-1 and in the experiment with A549 cells were 105 nM and 342 nM, respectively.

For `Cc1c(Cl)cccc1NC(=O)c1cc(NC(=O)c2ccccc2C(F)(F)F)cc2[nH]c([C@@H]3CCCN3C(=O)OC(C)(C)C)nc12` [Example 69, tert-Butyl (2S)-2-{4-[(3-chloro-2-methylphenyl)carbamoyl]-6-({[2-(trifluoromethyl)phenyl]carbonyl}amino)-1H-benzimidazol-2-yl}pyrrolidine 1-carboxylate], the IC50 at human mPGES-1 turned out to be 10 nM; in the experiment on A549 cells it was 21.6 nM.

With `COCc1nc2c(C(=O)Nc3cccc(Cl)c3C)cc(NC(=O)c3cc(F)ccc3C(F)(F)F)cc2[nH]1` [Example 112, N-(3-Chloro-2-methylphenyl)-6-({[5-fluoro-2-(trifluoromethyl)phenyl]carbonyl}amino)-2-(methoxymethyl)-1H-benzimidazole-4-carboxamide hydrochloride], the half-maximal inhibitory concentration (IC50) came to 2.6 nM on human mPGES-1 and 187 nM in the experiment on A549 cells.

In the case of `COCc1nc2c(C(=O)NCc3ccccc3C(F)(F)F)cc(NC(=O)c3ccccc3C(F)(F)F)cc2[nH]1` [Example 21, 2-(Methoxymethyl)-N-[2-(trifluoromethyl)benzyl]-6-({[2-(trifluoromethyl)phenyl]carbonyl}amino)-1H-benzimidazole-4-carboxamide], the figures for the IC50 on human mPGES-1 and in the experiment on A549 cells were 8.3 nM and 69.4 nM, respectively.

`COCc1nc2c(C(=O)Nc3cccc(Cl)c3C)cc(NC(=O)c3ccccc3S(C)(=O)=O)cc2[nH]1` [Example 212, N-(3-Chloro-2-methylphenyl)-2-(methoxymethyl)-6-({[2-(methylsulfonyl)phenyl]carbonyl}amino)-1H-benzimidazole-4-carboxamide]: the half-inhibitory concentration (IC50) on human mPGES-1 was determined as 42.3 nM; with A549 cells it was 305 nM.

`CCOCCc1nc2c(C(=O)Nc3cccc(Cl)c3C)cc(NC(=O)c3ccccc3C(F)(F)F)cc2[nH]1` [Example 78, N-(3-Chloro-2-methylphenyl)-2-(2-ethoxyethyl)-6-({[2-(trifluoromethyl)phenyl]carbonyl}amino)-1H-benzimidazole-4-carboxamide hydrochloride]: the IC50 was 96.8 nM on human mPGES-1 and 177 nM in the experiment on A549 cells.

Consider `Cc1c(Cl)cccc1NC(=O)c1cc(NC(=O)c2ccccc2C(F)(F)F)cc2[nH]c(C3CCCC3)nc12` [Example 124, N-(3-Chloro-2-methylphenyl)-2-cyclopentyl-6-({[2-(trifluoromethyl)phenyl]carbonyl}amino)-1H-benzimidazole-4-carboxamide hydrochloride], for which the 50% inhibitory concentration (IC50) on human mPGES-1 amounted to 2.2 nM; in the experiment with A549 cells, 3.2 nM.

`COCc1nc2c(C(=O)Nc3cccc(Cl)c3C)cc(NC(=O)c3ccncc3Cl)cc2[nH]1` [Example 245, N-(3-Chloro-2-methylphenyl)-6-{[(3-chloropyridin-4-yl)carbonyl]amino}-2-(methoxymethyl)-1H-benzimidazole-4-carboxamide hydrochloride]: the IC50 is 25.7 nM at human mPGES-1 and 166 nM in the experiment with A549 cells.

As to `Cc1c(Cl)cccc1NC(=O)c1cc(NC(=O)c2cc(Cl)ccc2Cl)cc2[nH]c(C3CC3)nc12` [Example 208, N-(3-Chloro-2-methylphenyl)-2-cyclopropyl-6-{[(2,5-dichlorophenyl)carbonyl]amino}-1H-benzimidazole-4-carboxamide hydrochloride], the IC50 at human mPGES-1 was 0.7 nM; in the experiment on A549 cells, 13 nM.

Take `CCCC(C)(C)c1nc2c(C(=O)Nc3cccc(Cl)c3C)cc(NC(=O)c3ccccc3C(F)(F)F)cc2[nH]1` [Example 84, N-(3-Chloro-2-methylphenyl)-2-(2-methylpentan-2-yl)-6-({[2-(trifluoromethyl)phenyl]carbonyl}amino)-1H-benzimidazole-4-carboxamide hydrochloride]: the values for the IC50 on human mPGES-1 and in the experiment with A549 cells were 0.8 nM and 6.5 nM, respectively.

As for `COCc1nc2c(C(=O)Nc3cccc(Cl)c3C)cc(NC(=O)c3c(Cl)cccc3Cl)cc2[nH]1` [Example 98, N-(3-Chloro-2-methylphenyl)-6-{[(2,6-dichlorophenyl)carbonyl]amino}-2-(methoxymethyl)-1H-benzimidazole-4-carboxamide hydrochloride], the IC50 on human mPGES-1 was found to be 6 nM; in the experiment on A549 cells it was 11.9 nM.

For `Cc1nc2c(C(=O)NCc3ccccc3C(F)(F)F)cc(NC(=O)c3ccccc3C(F)(F)F)cc2o1` [Example 53, 2-Methyl-N-[2-(trifluoromethyl)benzyl]-6-({[2-(trifluoromethyl)phenyl]carbonyl}amino)-1,3-benzoxazole-4-carboxamide], the IC50 on human mPGES-1 is 179 nM; in the experiment on A549 cells, 280 nM.

`Cc1ccc(NC(=O)c2cc(NC(=O)c3cc(Cl)ccc3Cl)cc3[nH]c(C4CC4)nc23)cc1Cl` [Example 209, N-(3-Chloro-4-methylphenyl)-2-cyclopropyl-6-{[(2,5-dichlorophenyl)carbonyl]amino}-1H-benzimidazole-4-carboxamide hydrochloride]: the half-inhibitory concentration (IC50) on human mPGES-1 amounted to 1 nM; with A549 cells it was 10.3 nM.

Consider `Cc1c(Cl)cccc1NC(=O)c1cc(NC(=O)c2ccccc2C(F)(F)F)cc2[nH]c(N[C@H](CO)C(C)C)nc12` [Example 170, N-(3-Chloro-2-methylphenyl)-2-{[(2S)-1-hydroxy-3-methylbutan-2-yl]amino}-6-({[2-(trifluoromethyl)phenyl]carbonyl}amino-1H-benzimidazole-4-carboxamide hydrochloride], for which the IC50 came to 3.2 nM at human mPGES-1 and 17.8 nM with A549 cells.

For `Cc1c(Cl)cccc1NC(=O)c1cc(NC(=O)c2ccccc2C(F)(F)F)cc2[nH]c(NC[C@H]3CCCO3)nc12` [Example 169, N-(3-Chloro-2-methylphenyl)-2-{[(2R)-tetrahydrofuran-2-ylmethyl]amino}-6-({[2-(trifluoromethyl)phenyl]carbonyl}amino)-1H-benzimidazole-4-carboxamide hydrochloride], the figures for the IC50 on human mPGES-1 and in the experiment with A549 cells were 2.4 nM and 88.6 nM, respectively.

Consider `Cc1c(Cl)cccc1NC(=O)c1cc(NC(=O)c2ccccc2C(F)(F)F)cc2[nH]c(N(C)C)nc12` [Example 145, N-(3-Chloro-2-methylphenyl)-2-(dimethylamino)-6-({[2-(trifluoromethyl)phenyl]carbonyl}amino)-1H-benzimidazole-4-carboxamide hydrochloride], for which the IC50 on human mPGES-1 was determined as 1.6 nM; in the experiment with A549 cells, 13 nM.
